Where a name gives a salt, the structure may show the parent alone.
Test system: hDMFa myofibroblast cells
Assay: Myofibroblast cytotoxicity, MTS cell viability assay
[1] = serum-free media with inhibitor 8-12 hours, MTS cell viability, inhibition normalized as percentage of negative control
[2] = MTS viability, 8-12 hours incubation in serum-free inhibitor media, normalized to negative control
[3] = 8-12 hours in serum-free inhibitor media, […]
[4] = serum-free media with inhibitor 8-12 hours, MTS viability normalized to negative control

CCCCCCCCCCCCCCCC[N+](C)(C)C.[Br-] [Cmpd 242, Cetrimonium Bromide (CTAB)]
Compound Myofibroblast Cytotoxicity Activity [1]: +++++

COc1ccc2c(c[n+](C)c3c4cc5c(cc4ccc23)OCO5)c1OC.[Cl-] [Cmpd 244, Chelerythrine Chloride]
Compound Myofibroblast Cytotoxicity Activity [1]: +++++

CCCCCCCCCCCC[N+](C)(C)CCOc1ccccc1 [Cmpd 377, Domiphen Bromide]
Compound Myofibroblast Cytotoxicity Activity [2]: +++++

CO[C@H]1C[C@H](O[C@H]2[C@H](C)O[C@@H](O[C@@H]3/C(C)=C/C[C@@H]4C[C@@H](C[C@]5(C=C[C@H](C)[C@@H](C6CCCCC6)O5)O4)OC(=O)[C@@H]4C=C(C)[C@@H](O)[C@H]5OC/C(=C\C=C\[C@@H]3C)[C@]54O)C[C@@H]2OC)O[C@@H](C)[C@@H]1O [Cmpd 379, Doramectin]
Compound Myofibroblast Cytotoxicity Activity [2]: +++++

CC(C)(C)c1cc(C(C)(C)C)c(NC(=O)c2c[nH]c3ccccc3c2=O)cc1O [Cmpd 545, Ivacaftor (VX-770)]
Compound Myofibroblast Cytotoxicity Activity [2]: +++++

NCCC(=O)N[C@@H](Cc1cnc[nH]1)C(=O)O [Cmpd 568, L-Carnosine]
Compound Myofibroblast Cytotoxicity Activity [3]: 8

Cl.NCCCC[C@H](N)C(=O)O [Cmpd 597, L-Lysine HCl]
Compound Myofibroblast Cytotoxicity Activity (8-12 hours in serum-free inhibitor media, […], HCl): +

C#C[C@]1(O)CC[C@H]2[C@@H]3CCC4=CCCC[C@@H]4[C@H]3CC[C@@]21C [Cmpd 623, Lynestrenol]
Compound Myofibroblast Cytotoxicity Activity [3]: +++++

CN(C)CCC=C1c2ccccc2C(C)(C)c2ccccc21 [Cmpd 647, Melitracen hydrochloride]
Compound Myofibroblast Cytotoxicity Activity [3]: +++++

CC(=O)Oc1cc(C)c(OC(C)=O)c2ccccc12 [Cmpd 650, Menadiol Diacetate]
Compound Myofibroblast Cytotoxicity Activity [3]: +++++

CCCCCCCCN=c1ccn(CCCCCCCCCCn2ccc(=NCCCCCCCC)cc2)cc1 [Cmpd 730, Octenidine (dihydrochloride)]
Compound Myofibroblast Cytotoxicity Activity [3]: +++++

CC1(C)CC[C@]2(C(=O)O)CC[C@]3(C)C(=CC[C@@H]4[C@@]5(C)CC[C@H](O)C(C)(C)[C@@H]5CC[C@]43C)[C@@H]2C1 [Cmpd 732, Oleanolic acid]
Compound Myofibroblast Cytotoxicity Activity [3]: +++++

CCCCCCCCCCCCCCCCCCOP(=O)([O-])OC1CC[N+](C)(C)CC1 [Cmpd 771, Perifosine]
Compound Myofibroblast Cytotoxicity Activity [3]: +++++

O=C1[C@H]2CCCC[C@H]2C(=O)N1CCCCN1CCN(c2nsc3ccccc23)CC1 [Cmpd 772, Perospirone hydrochloride]
Compound Myofibroblast Cytotoxicity Activity [3]: +++++

Nc1ccc2cc3ccc(N)cc3nc2c1.Nc1ccc2cc3ccc(N)cc3nc2c1.O=S(=O)(O)O [Cmpd 798, Proflavine Hemisulfate]
Compound Myofibroblast Cytotoxicity Activity [3]: +++++

COc1ccc2c(O[C@@H]3C[C@H]4C(=O)N[C@]5(C(=O)NS(=O)(=O)C6CC6)C[C@H]5/C=C\CCCCN(C)C(=O)[C@@H]4C3)cc(-c3nc(C(C)C)cs3)nc2c1C [Cmpd 863, Simeprevir]
Compound Myofibroblast Cytotoxicity Activity [4]: +++++

CN[C@@H]1C[C@H]2O[C@@](C)([C@@H]1OC)n1c3ccccc3c3c4c(c5c6ccccc6n2c5c31)C(=O)NC4 [Cmpd 888, Staurosporine]
Compound Myofibroblast Cytotoxicity Activity [4]: +++++

Cc1ccc(Sc2ccccc2N2CCNCC2)c(C)c1 [Cmpd 1011, Vortioxetine]
Compound Myofibroblast Cytotoxicity Activity [4]: +++++

Br.Cc1ccc(Sc2ccccc2N2CCNCC2)c(C)c1 [Cmpd 1012, Vortioxetine (Lu AA21004) HBr]
Compound Myofibroblast Cytotoxicity Activity [4]: +++++

Sericin Gel [Cmpd 859]
Compound Myofibroblast Cytotoxicity Activity [4]: +

Sodium Aescinate [Cmpd 869]
Compound Myofibroblast Cytotoxicity Activity [4]: +++++

Reference: patent US20260102359A1, “COMBINATION TREATMENT OF DERMAL AND TRANSDERMAL FIBROTIC DISEASES, DISORDERS AND ASSOCIATED PAIN AND INFLAMMATION” (ERESINA, LLC, priority 2022, published 2026)
